Laboratory results reported in the CheMixHub viscosity set.
Where “and” joins values, the source holds several entries; their conditions need not be identical. Equal entries are not always repeated.

Assay: xn = mol fraction of the nth substance listed

OCCOCCOCCO + CCCC(C)O
viscosity [mPa·s], 100 kPa
Settings	x1 = 0.0809	x1 = 0.16	x1 = 0.2401	x1 = 0.35	x1 = 0.44	x1 = 0.5601	x1 = 0.6499	x1 = 0.7401	x1 = 0.8501	x1 = 0.9401
293.15 K	4.98	6.16	7.62	10.23	12.89	17.73	22.03	27.33	34.9	42.55
298.15 K	4.35	5.48	6.71	8.84	10.83	14.35	17.55	21.36	27.16	32.88
303.15 K	3.57	4.56	5.62	7.33	8.95	11.76	14.33	17.37	21.79	26.06
308.15 K	3.03	3.84	4.79	6.2	7.55	9.77	11.78	14.16	17.58	21.01
313.15 K	2.48	3.16	3.93	5.1	6.26	8.19	9.89	11.86	14.62	17.22
318.15 K	2.24	2.86	3.49	4.48	5.4	6.92	8.23	9.81	12.04	14.18
323.15 K	1.94	2.47	3.03	3.87	4.64	5.92	6.99	8.27	10.15	11.91

CCCCCCCCCCO + CCCCCC
viscosity [mPa·s]
Settings	298.15 K	313.15 K
101 kPa, x1 = 0.1542	0.53	0.436
101 kPa, x1 = 0.2062	0.652	0.522
101 kPa, x1 = 0.2913	0.903	0.696
101 kPa, x1 = 0.4059	1.404	1.025
101 kPa, x1 = 0.5224	2.204	1.524
101 kPa, x1 = 0.604	3.005	2.014
101 kPa, x1 = 0.7085	4.435	2.85
101 kPa, x1 = 0.8065	6.289	3.857
101 kPa, x1 = 0.8728	7.898	4.705
101.3 kPa, x1 = 0.0533	0.372	–
101.3 kPa, x1 = 0.1124	0.458	–
101.3 kPa, x1 = 0.1601	0.545	–
101.3 kPa, x1 = 0.208	0.651	–
101.3 kPa, x1 = 0.2525	0.733	–
101.3 kPa, x1 = 0.3012	0.929	–
101.3 kPa, x1 = 0.4024	1.377	–
101.3 kPa, x1 = 0.5028	2.028	–
101.3 kPa, x1 = 0.6001	2.934	–
101.3 kPa, x1 = 0.7019	4.26	–
101.3 kPa, x1 = 0.7954	5.923	–
101.3 kPa, x1 = 0.8487	7.108	–
101.3 kPa, x1 = 0.9002	8.453	–
101.3 kPa, x1 = 0.9622	10.36	–

Cc1ccc(Cl)cc1 + CCCCCC
viscosity [mPa·s], 100 kPa
Settings	298.15 K	308.15 K	318.15 K
x1 = 0.0878	0.332	0.307	0.285
x1 = 0.1581	0.352	0.324	0.3
x1 = 0.2446	0.379	0.348	0.322
x1 = 0.2988	0.397	0.364	0.337
x1 = 0.4004	0.435	0.398	0.367
x1 = 0.47	0.466	0.426	0.393
x1 = 0.5234	0.492	0.448	0.412
x1 = 0.572	0.519	0.47	0.429
x1 = 0.622	0.548	0.493	0.449
x1 = 0.681	0.584	0.524	0.475
x1 = 0.7857	0.654	0.584	0.53
x1 = 0.8603	0.707	0.632	0.572
x1 = 0.9366	0.773	0.687	0.618

Cc1ccccc1C + CCCCCC
viscosity [mPa·s], 101.33 kPa
Settings	x2 = 0.29	x2 = 0.6	x2 = 0.79
293.15 K	0.5875	0.4736	0.3659
313.15 K	0.4679	0.3797	0.3022

CCCCCCCCCCCC + CCCCCCC
Settings	viscosity
298 K, 101 kPa, x1 = 0.5	0.7879 mPa·s and 0.7868 mPa·s
298.15 K, 101.33 kPa, x2 = 0.1076	1.219 mPa·s
298.15 K, 101.33 kPa, x2 = 0.2092	1.086 mPa·s
298.15 K, 101.33 kPa, x2 = 0.3109	0.9598 mPa·s
298.15 K, 101.33 kPa, x2 = 0.4064	0.8662 mPa·s
298.15 K, 101.33 kPa, x2 = 0.5062	0.7707 mPa·s
298.15 K, 101.33 kPa, x2 = 0.6081	0.6772 mPa·s
298.15 K, 101.33 kPa, x2 = 0.7046	0.5964 mPa·s
298.15 K, 101.33 kPa, x2 = 0.8043	0.5157 mPa·s
298.15 K, 101.33 kPa, x2 = 0.9039	0.4454 mPa·s
318 K, 101 kPa, x1 = 0.5	0.6058 mPa·s and 0.6054 mPa·s

CCCCCCCCCCO + CCCCCCC
viscosity [mPa·s], 101.33 kPa
Settings	298.15 K	308.15 K
x1 = 0.0386	0.4346	0.3825
x1 = 0.0772	0.4872	0.4312
x1 = 0.1584	0.642	0.5562
x1 = 0.2472	0.8698	0.7324
x1 = 0.3368	1.225	1.034
x1 = 0.4264	1.647	1.331
x1 = 0.5326	2.338	1.903
x1 = 0.6364	3.29	2.7
x1 = 0.7498	5.08	3.93
x1 = 0.8055	5.926	4.829
x1 = 0.8688	7.145	5.938
x1 = 0.9331	8.722	6.788

CCCCCCCCCCCC + CCCCCCCC
Settings	viscosity
298.15 K, 101.33 kPa, x2 = 0.1117	1.233 mPa·s
298.15 K, 101.33 kPa, x2 = 0.2101	1.138 mPa·s
298.15 K, 101.33 kPa, x2 = 0.3025	1.038 mPa·s
298.15 K, 101.33 kPa, x2 = 0.4085	0.9477 mPa·s
298.15 K, 101.33 kPa, x2 = 0.5069	0.8672 mPa·s
298.15 K, 101.33 kPa, x2 = 0.6088	0.7703 mPa·s
298.15 K, 101.33 kPa, x2 = 0.7035	0.71 mPa·s
298.15 K, 101.33 kPa, x2 = 0.804	0.6353 mPa·s
298.15 K, 101.33 kPa, x2 = 0.9048	0.5647 mPa·s
298.2 K, 100 kPa, x2 = 0.5	0.869 mPa·s
323.15 K, 100 kPa, x2 = 0.434	0.658 mPa·s and 0.657 mPa·s
323.15 K, 100 kPa, x2 = 0.743	0.502 mPa·s and 0.501 mPa·s

CCCCCCCCCCO + CCCCCCCC
298.15 K, 101.3 kPa
Settings	viscosity [mPa·s]
x1 = 0.0592	0.601
x1 = 0.11	0.678
x1 = 0.1555	0.769
x1 = 0.2012	0.876
x1 = 0.2553	1.032
x1 = 0.303	1.194
x1 = 0.4085	1.665
x1 = 0.5085	2.311
x1 = 0.6109	3.244
x1 = 0.7126	4.541
x1 = 0.7879	5.827
x1 = 0.8535	7.233
x1 = 0.9129	8.795
x1 = 0.9391	9.583

CCOC(=O)OCC + CCCCCCCC
298.15 K, 101.3 kPa
Settings	viscosity [mPa·s]
x1 = 0.0224	0.517
x1 = 0.0828	0.509
x1 = 0.1137	0.508
x1 = 0.1181	0.508
x1 = 0.1535	0.508
x1 = 0.1753	0.507
x1 = 0.3802	0.529
x1 = 0.4893	0.549
x1 = 0.5834	0.572
x1 = 0.6904	0.6
x1 = 0.8119	0.645
x1 = 0.8465	0.659
x1 = 0.8953	0.681
x1 = 0.9679	0.727

CCCCCCCCCCCC + CCCCCCCCCC
298.15 K, 101.33 kPa
Settings	viscosity [mPa·s]
x2 = 0.1071	1.294
x2 = 0.2012	1.243
x2 = 0.3014	1.198
x2 = 0.4079	1.146
x2 = 0.5077	1.092
x2 = 0.6096	1.036
x2 = 0.7085	0.9801
x2 = 0.8052	0.9488
x2 = 0.9045	0.9028

CCCCCCCCCCO + CCCCCCCCCC
298.15 K, 101.3 kPa
Settings	viscosity [mPa·s]
x1 = 0.0518	0.924
x1 = 0.1069	1.021
x1 = 0.1649	1.168
x1 = 0.2141	1.308
x1 = 0.2591	1.457
x1 = 0.3013	1.618
x1 = 0.4008	2.078
x1 = 0.5047	2.74
x1 = 0.6063	3.619
x1 = 0.6847	4.535
x1 = 0.8044	6.474
x1 = 0.8482	7.392
x1 = 0.8943	8.5
x1 = 0.9494	10.05

CCOC(=O)OCC + CCCCCCCCCCCC
298.15 K, 101.3 kPa
Settings	viscosity [mPa·s]
x1 = 0.0152	1.301
x1 = 0.0779	1.228
x1 = 0.1327	1.18
x1 = 0.1841	1.133
x1 = 0.2993	1.047
x1 = 0.4701	0.942
x1 = 0.6163	0.86
x1 = 0.7539	0.793
x1 = 0.9071	0.745
x2 = 0.014	0.741

CCCCCCCCCCO + CCCCCCCCCCCCCCCC
100 kPa, x2 = 0.0921
Settings	viscosity [mPa·s]
298.2 K	9.77
308.2 K	6.71
318.2 K	4.76

CC(C)[C@@H]1CC[C@@H](C)C[C@H]1O + CCCCCCCCCCO
Settings	viscosity [mPa·s]
298.15 K, 101.33 kPa, x1 = 0.5	21.24

Cc1ccccc1C + CCCCCCCCCCO
viscosity [mPa·s], 101 kPa
Settings	298.15 K	308.15 K
x1 = 0.0766	9.611	6.581
x1 = 0.1331	8.188	5.606
x1 = 0.1823	7.108	4.864
x1 = 0.2509	5.802	3.987
x1 = 0.3173	4.749	3.288
x1 = 0.3896	3.813	2.671
x1 = 0.4556	3.107	2.214
x1 = 0.5261	2.509	1.815
x1 = 0.6054	1.983	1.459
x1 = 0.6597	1.695	1.264
x1 = 0.7364	1.374	1.041
x1 = 0.8029	1.156	0.895
x1 = 0.873	0.977	0.781
x1 = 0.9447	0.84	0.698

CC(C)[C@@H]1CC[C@@H](C)C[C@H]1O + CCCCCCCCCO
Settings	viscosity [mPa·s]
298.15 K, 101.33 kPa, x1 = 0.5	35.03

CC(C)[C@@H]1CC[C@@H](C)C[C@H]1O + CCCCCCCCO
Settings	viscosity [mPa·s]
298.15 K, 101.33 kPa, x1 = 0.5	13.1

CCCCCCCCCCO + CCCCCCCCO
viscosity [mPa·s], 101.8 kPa
Settings	x2 = 0.1199	x2 = 0.3407	x2 = 0.5487	x2 = 0.7394	x2 = 0.918
298.15 K	11.14	10.21	9.324	8.588	7.888
308.15 K	7.791	7.162	6.608	6.092	5.658
318.15 K	5.571	5.156	4.78	4.438	4.135

CN1CCN(C)C1=O + CCCCCCCCn1cc[n+](C)c1.[Cl-]
100 kPa
Settings	viscosity [mPa·s]
293.15 K, x2 = 0.6016	985.8
313.15 K, x2 = 0.7994	773.5
318.15 K, x2 = 0.105	3.715
323.15 K, x2 = 0.7994	404.5
